Values after ≈ are worked out from the molar mass of the structure shown.

The text below walks through data of patent US6350775B1, “3-phenyl-furan-(5H)-2-one and dihydrofuran-2-one derivatives as antibacterial agents” (priority 1996, dated 2002).

What all share (assay type): cell-based
Assay [1] has as its system Staphylococcus aureus Oxford. The assay can be described thus: MIC by agar-dilution, Staphylococcus aureus Oxford. The note with it: 10^4 CFU/spot, 37° C., 24 hours. How it is done:
(§1) The following results were obtained on a standard in vitro test system. The activity is described in terms of the minimum inhibitory concentration (MIC) determined by the agar-dilution technique with an inoculum size of 10^4 CFU/spot. Staphylococci were tested on agar, using an inoculum of 10^4 CFU/spot and an incubation temperature of 37° C. for 24 hours—standard test conditions for the expression of methicillin resistance.

Assay [2] concerns Staphylococcus aureus Novb. Res (Novobiocin resistant). As to the kind of experiment: MIC by agar-dilution, Staphylococcus aureus Novb. Res. The note with it: 10^4 CFU/spot, 37° C., 24 hours. On the procedure:
as §1

The subject of assay [3] is Staphylococcus aureus MRQS (methicillin resistant quinolone sensitive). As to the kind of experiment: MIC by agar-dilution, Staphylococcus aureus MRQS. The note with it: 10^4 CFU/spot, 37° C., 24 hours. How it is done: as §1
The test system of assay [4] is Staphylococcus aureus MRQR (methicillin resistant quinolone resistant). As to the kind of experiment: MIC by agar-dilution, Staphylococcus aureus MRQR. The note with it: 10^4 CFU/spot, 37° C., 24 hours. How it is done: as §1
Assay [5] deals with Coagulase Negative Staphylococcis MS. As to the kind of experiment: MIC by agar-dilution, Coagulase Negative Staphylococci MS. The note with it: 10^4 CFU/spot, 37° C., 24 hours. On the procedure: as §1
For assay [6], the system named is Coagulase Negative Staphylococcis MR (methicillin resistant). As to the kind of experiment: MIC by agar-dilution, Coagulase Negative Staphylococci MR. The note with it: 10^4 CFU/spot, 37° C., 24 hours. On the procedure:
as §1

Assay [7] has as its system Streptococcus pyogenes C203. As to the kind of experiment: MIC by agar-dilution, Streptococcus pyogenes C203. The note with it: agar with 5% defibrinated horse blood, 10^4 CFU/spot, 37° C., 5% carbon dioxide, 48 hours. On the procedure:
as §1
(§2) Streptococci and enterococci were tested on agar supplemented with 5% defibrinated horse blood, an inoculum of 10^4 CFU/spot and an incubation temperature of 37° C. in an atmosphere of 5% carbon dioxide for 48 hours—blood is required for the growth of some of the test organisms.

A further assay relates to Enterococcus faecalis. The assay can be described thus: MIC by agar-dilution, Enterococcus faecalis. The note with it: agar with 5% defibrinated horse blood, 10^4 CFU/spot, 37° C., 5% carbon dioxide, 48 hours. On the procedure: as §1, §2
A further assay concerns Bacillus subtilis. As to the kind of experiment: MIC by agar-dilution, Bacillus subtilis. The note with it: 10^4 CFU/spot. On the procedure: as §1

For orientation: MIC means the smallest concentration in the dilution series that meets the test's criterion for growth inhibition. A high value points to weaker potency. As to `CC(=O)NC[C@H]1CC(c2ccc(C3=CCN(C(=O)CO)CC3)cc2)C(=O)O1` (stereo partly drawn) [Example 5, 5R,3RS-5-Acetamidomethyl-3-(4-[1-hydroxyacetyl-1,2,5,6-tetrahydropyrid-4-yl]phenyl)dihydrofuran-2(3H)-one], the MIC is 4.0 µg/mL (≈ 10.7 µM) in [1]; 4.0 µg/mL (≈ 10.7 µM) in assay [2]; 4.0 µg/mL (≈ 10.7 µM) in [3]; 8.0 µg/mL (≈ 21.5 µM) in assay [4]; 2.0 µg/mL (≈ 5.37 µM) in assay [5]; 4.0 µg/mL (≈ 10.7 µM) in [6]. For the same compound, the figures for the MIC (in assay [7]; with Enterococcus faecalis; in the assay on Bacillus subtilis) were 8.0 µg/mL (≈ 21.5 µM), 8.0 µg/mL (≈ 21.5 µM) and 4.0 µg/mL (≈ 10.7 µM), respectively.
